Results reported in article PMC6973020, “Quinoline‐Conjugated Ruthenacarboranes: Toward Hybrid Drugs with a Dual Mode of Action” (Chemmedchem, 2019).

Key:
[1] = system: LN229 cells; assay: AnnV/PI double staining, flow cytometry, LN229; type: cell-based, human; details: LN229, 40 μM, 72 h
Description: (§1) Flow cytometry. For gaining better insights into the mechanisms of action of the ruthenium complexes, MCF‐7 and LN229 cells incubated with an IC50 dose of 3 or 4, were analyzed via flow cytometry. Several staining protocols were carried out in parallel, in independent experiments: i) AnnV/PI for the detection of apoptotic cell death, ii) AO for the detection of acidic vacuoles, iii) ApoStat for checking caspase activation, iv) CFSE for detecting interference with cellular proliferation, and v) DAPI for the detection of morphological signs of apoptosis. Untreated cells or cells treated only with BSA (control) were also measured, as reference for BSA‐free and BSA‐containing drug formulations, respectively. […] Channels FL1 (green emission), FL2 (orange emission) and/or FL3 (dark red emission) were used for fluorescence detection, according to the specific staining agent. Sideward Scatter (SSC) for MCF‐7 cells treated with 4 or BSA−4 was also analyzed, with respect to the control, for detection of shifts of cell granularity. […]
FCS, 2 mM L‐glutamine, 0.01% sodium pyruvate and antibiotics, at 37 °C in a humidified atmosphere with 5% CO2. […] Cells were counted and seeded in 96‐well plates and incubated overnight, as described above. […]
Staining Protocols for Flow Cytometric Analysis. […] Finally, cells were washed in PBS, resuspended in PBS (or AnnV‐binding buffer for AnnV/PI), and analysed. […]

[2] = system: LN229 cells; assay: AO staining (acidic vesicles), LN229; type: cell-based, human; details: LN229, IC50 dose, 72 h, compared with cells treated with an IC50 dose of 3
Description: as §1
Staining Protocols for Flow Cytometric Analysis. […] Finally, cells were washed in PBS, resuspended in PBS (or AnnV‐binding buffer for AnnV/PI), and analysed. […] Cells were then washed, trypsinised, dissolved in PBS and analysed by CyFlow® Space Partec using the PartecFloMax® software (Partec GmbH, Münster, Germany). […]

Which results are given for “closo ‐[3‐(η^6‐p‐Cymene)‐1‐(quinolin‐8‐yl‐acetate)‐3,1,2‐RuC2B9H10] [Compound 4]”?
early apoptotic (Ann+/PI−) cells ([1]; control 0.9 %): 9.0%; late apoptotic (Ann+/PI+) cells ([1]; control 7.4 %): 35%; number of acidic vesicles (AO staining) [2]: significantly lower
